Data set [1] in a line: Log D measurement (n-octanol/PBS shake, LC-MS/MS). Conditions: pH 7.4, read-out: LogD7.4 (Oct/buff). It counts as physicochemical. The protocol: Two replicates of test compounds (DMSO stock solution 10 mM, 2 μL/well) and QCs (DMSO 10 mM, 2 μL/well) were transferred from the storage tube to a 96-well cluster tube. Add buffer-saturated n-octanol ([…]) and n-octanol-saturated PBS (149 μL/well) to each well; vortex mix the cluster tube for 1 minute, mix by shaking on a plate shaker at 880 rpm for one hour, and then centrifuge at 4000 rpm for 10 minutes. Remove the cover pad, accurately measure a certain amount of n-octanol layer samples (4 μL/well) into a 96-well plate containing n-octanol internal standard diluent (796 μL/well); accurately measure a certain amount of buffer salt layer samples (30 μL/well) into a 96-well plate containing buffer internal standard diluent (570 μL/well); the dilution factor of the sample can be adjusted according to different properties of the sample. Samples were analyzed using a triple quadrupole mass spectrometer. The processed sample solution was analyzed by the fast isocratic elution and small column retention method, the concentration correction was carried out by dilution factor and internal standard, and the ratio of the corrected peak area was used to calculate the final result (Log D/Log P value).

A short description of data set [2]: Thermodynamic solubility assay (PBS pH 6.5; isopropyl myristate). Format: physicochemical. Conditions: thermodynamic from solid. The method, then: Thermodynamic Solubility Assay
Weigh not less than 2 mg of the sample powder into a Whatman Mini-UniPrep vial. If it is required to test the thermodynamic solubility of samples in multiple buffers, a separate vial is needed for each test; add 450 μL of buffer to each Whatman Mini-UniPrep vial, respectively; after that, install the piston cap of Whatman Mini-UniPrep and press it above the liquid level, so that the filter is in contact with the buffer during shaking; shake the solubility sample by vortexing for 1 minute.
Inject 3 UV standard solutions from low to high concentrations into the HPLC, then inject the diluent and supernatant of the test compound, with two replicates of test sample; and integrate the UV peaks. Simulate a standard curve and calculate the thermodynamic solubility of the sample.

The test system of data set [3] is skin contact delayed-type hypersensitivity. The data set can be described thus: Skin contact delayed-type hypersensitivity (DNFB) response test, ear swelling, topical ointment. The note with it: topical to ears, DNFB DTH, Balb/c mice, compared to blank ointment. Format: in vivo. The text has this:
Therapeutic Effect of Topical Administration of Compounds of the Present Application in Skin Contact Delayed-Type Hypersensitivity Response Test in Mice Delayed-type hypersensitivity (DTH) response in mouse skin is considered to be an effective model for clinical contact dermatitis and other T cell-mediated cutaneous immune diseases, such as atopic dermatitis and psoriasis. The DTH in mice shares the common features with these cutaneous immune diseases, including immunoinfiltration with an increase of inflammatory cytokines and hyperproliferation of keratinocytes. Balb/c mice were sensitized by topical administration of the antigen 2,4-dinitrofluorobenzene (DNFB) to the shaved back of mice on Days 0 and 1. On Day 5, the thickness of the ears was measured using an engineering micrometer. The measurement result was recorded and used as a baseline. The animals were then challenged with a total of 20 μL of DNFB (10 μL for the internal pinna and 10 μL for the external pinna) topically dosed to both ears at a concentration of 0.2%. The ears were measured again 24-72 hours after challenge. The compound ointment of the present application was applied topically to the ears of the animals throughout the allergic and challenge periods (Days −1˜7) or before or throughout the challenge period (generally Days 4˜7). The therapeutic effect was expressed by a reduction in ear swelling compared to that of the blank ointment. The compound causing a reduction of 20% or more was considered effective. Table 5 lists the skin contact delayed-type hypersensitivity experiment results in mice treated with the compound of the present application.

A short description of data set [4]: Plasma stability, human plasma. Format: in vitro ADME, Humans. Conditions: 37° C. The protocol:
(§1) In addition, the plasma stability of these compounds was determined. Briefly, the determination method comprises the following steps: • 1) Thaw the frozen mixed plasma in a 37° C. water bath before testing, and then centrifuge at 4000 rpm for 5 min to remove blood clots; • 2) Add 98 μL blank plasma into each well of the 96-well reaction plate; • 3) In addition to the blank samples, add 2 μL of 100 μM working solution of test compound into each well; • 3) Incubate the reaction plate at 37° C. and start timing. Incubation times were 0, 10, 30, 60 and 120 minutes, respectively, with two replicate wells at each time point; • 4) Terminate the incubation at the corresponding time point, and add 400 μL of acetonitrile solution containing 200 ng/mL tolbutamide and 200 ng/mL labetalol to precipitate proteins; • 5) Shake each plate for 20 minutes, then centrifuge at 4000 rpm for 20 minutes, transfer 50 μL of supernatant to another 96-well plate, and dilute each sample with 100 μL of pure water; • 6) Analyze the sample by LC-MS/MS.
The experiment results are as follows, and it can be seen from the test results that the selected compounds are easily metabolized to the target compound in human plasma.

The nature of data set [5]: Plasma stability, mini pig plasma. Format: in vitro ADME, Mini Pigs. The note with it: 37° C. The protocol:
as §1

Data set [6] concerns rash caused by monoclonal EGFR inhibitors. The data set can be described thus: Prevention of rash caused by monoclonal EGFR inhibitors, topical ointment, rat model. Format: in vivo, SD rats. The protocol: An Experiment to Verify the Prevention of Rash Caused by Monoclonal EGFR Inhibitors with Topical Administration of Compounds of the Present Application on a Rat Animal Model After the SD rats were fed and adapted for one week (about 200 g), the rats were divided into 10 rats per group. The hair on the back of rats was gently removed with an electric razor one day before the experiment, and then an administration test was carried out. The experiments were divided into the administration group with the compound of the present application and the control group. The EGFR monoclonal antibody solution diluted with normal saline was injected via the tail vein twice a week, and the injection rate and time are shown in Table 2. After injection, the administration group applied the compound ointment of the present application on the backs (about 3 cm*3 cm) of rats every day, and the control group applied blank matrix ointment (about 0.5 g) to the backs (about 3 cm*3 cm) of rats every day. After drug application, the rats were fixed with a fixed cyclinder for 4 h; after that, the rats were released and the residual drug at the application site was wiped off with clear water. Monoclonal antibody EGFR inhibitors were injected via the tail vein twice a week, and the compound of the present application and blank ointment were applied once a day until obvious rashes appeared in the control group. […] Table 2 lists the animal experiment combinations of various monoclonal antibody EGFR inhibitors and the compound ointment of the present application, as well as the corresponding experiment results (wherein, the value in the control rate column=the number of rats whose rash is milder in the administration group than that in the control group/the total number of rats in the administration group×100%).

The subject of data set [7] is rash caused by small molecule EGFR inhibitors. The data set can be described thus: Prevention of rash caused by small molecule EGFR inhibitors, topical ointment, rat model. Format: in vivo, SD rats. From the text:
An Experiment to Verify the Prevention of Rash Caused by Small Molecule EGFR Inhibitors with Topical Administration of Compounds of the Present Application on a Rat Animal Model A rat animal model was established. After daily gavage of a small molecule EGFR inhibitor to female SD rats for […], the rats developed extensive rashes on their backs several days later (picture shown in FIG. 1). […] Similar to humans, rats developed skin rashes on their faces and bodies after oral administration of small molecule EGFR inhibitors. Both of them had the same etiology and very similar symptoms. Therefore, rats are a proper animal model for mimicking EGFR inhibitor-induced rash. After the SD rats were fed and adapted for one week (about 200 g), the rats were divided into 10 rats per group. The hair on the back of rats was gently removed with an electric razor one day before the experiment, and then an intragastric administration test was carried out. EGFR inhibitors were dissolved in a sterile aqueous solution, and diluted with PBS buffer; the amount of each gavage was not more than 2 mL, and the dosage was shown in Table 1. The experiment comprised the administration group and the control group. After intragastric administration, apply the ointment (type and concentration are shown in Table 1) of the compound used in the present application to the backs (about 3 cm*3 cm) of rats in the administration group; apply blank matrix ointment (about 0.5 g) to the backs (about 3 cm*3 cm) of rats in the control group; fix the rats with a fixed cylinder for about 4 hours after drug application, release the rats after 4 hours, wipe off the residual drug at the application site with clean water, and put them back into the cage. The frequency of intragastric administration of EGFR inhibitors is shown in Table 1, but the compounds of the present application and blank matrix ointment are applied only once a day. The intragastric administration and application test were repeated daily until an obvious rash appeared in the control group. […] Table 1 lists the animal experiment combination of various small molecule EGFR inhibitors and the compound ointment of the present application, as well as the corresponding experiment results (wherein, the value in the control rate column=the number of rats whose rash is milder in the administration group than that in the control group/the total number of rats in the administration group×100%).

Where [8] appears, read: aqueous buffer, PBS buffer pH 6.5, about 25° C., read-out: Thermodynamic Solubility pH = 6.5.
Where [9] appears, read: oil or lipid, isopropyl myristate as vehicle, about 25° C., read-out: Thermodynamic Solubility in Isopropyl Myristate.

Converted amounts (≈) assume the structure as drawn. Like-named read-outs stand apart in the source and are kept apart here.

These results are taken from US20250188088A1, “COMPOUND AND USE THEREOF” (ONQUALITY PHARMACEUTICALS CHINA LTD., priority 2022, published 2025).

With `CCC(C)C(=O)OCCN(C)C(=O)n1ccc2c(N(C)[C@H]3CN(C(=O)CC#N)CC[C@H]3C)ncnc21` (some centres unmarked) [Compound A11], the logD in data set [1] came out at 1.87. Besides, the solubility (thermodynamic) at 24 h amounted to 170 µg/mL (≈ 341 µM) in data set [2] (setting [8]) and 1590 µg/mL (≈ 3200 µM) in data set [2] (setting [9]).

Turning to `CCC(=O)OCCN(C)C(=O)n1ccc2c(N(C)[C@H]3CN(C(=O)CC#N)CC[C@H]3C)ncnc21` [Compound A20], the logD in data set [1] came out at 0.97. The thermodynamic solubility at 24 h in data set [2] (setting [8]) worked out at 2430 µg/mL (≈ 5180 µM); in data set [2] (setting [9]), 779 µg/mL (≈ 1660 µM).

For the compound `C[C@@H]1CCN(C(=O)CC#N)C[C@@H]1N(C)c1ncnc2c1ccn2C(=O)N(C)CCOC(=O)C1CCC(F)(F)CC1` [Compound A2], the logD in data set [1] stood at 1.86. The solubility (thermodynamic) at 24 h in data set [2] (setting [8]) stood at 240 µg/mL (≈ 429 µM); in data set [2] (setting [9]) it was 1020 µg/mL (≈ 1820 µM).

Regarding `C[C@@H]1CCN(C(=O)CC#N)C[C@@H]1N(C)c1ncnc2c1ccn2C(=O)N(C)CCOC(=O)C1CCCCC1` [Compound A16], the “Reduction Rate of Ear Swelling” value came out at 25% in data set [3] (ointment 0.1 wt%), 35% in data set [3] (ointment 1.0 wt%), 39% in data set [3] (ointment 5.0 wt%) and 42% in data set [3] (ointment 10.0 wt%). Further, the half-life at 2 µM was found to be 2.2 min in data set [4] and 2.8 min in data set [5]. Also, the “% Retained” value was determined as 100.0% in data set [4] (0 min); 4.5% in data set [4] (10 min); 0.0% in data set [4] (30 min); 0.0% in data set [4] (60 min); 0.0% in data set [4] (120 min); 100.0% in data set [5] (0 min). Further, the “% Retained” value in data set [5] (10 min) turned out to be 8.3%; in data set [5] (30 min) it was 0.1%; in data set [5] (60 min), 0.0%; in data set [5] (120 min), 0.0%. Also, the “Control Rate” value amounted to 10% in data set [6] (Cetuximab 100 mg/kg twice a week via tail vein, ointment 0.3 wt% once a day, 10 days); 50% in data set [6] (Cetuximab 100 mg/kg twice a week via tail vein, ointment 3.0 wt% once a day, 10 days); 70% in data set [6] (Cetuximab 100 mg/kg twice a week via tail vein, ointment 10.0 wt% once a day, 10 days); 50% in data set [6] (Panitumumab 10 mg/kg twice a week via tail vein, ointment 1.0 wt% once a day, 14 days); 80% in data set [6] (Panitumumab 10 mg/kg twice a week via tail vein, ointment 5.0 wt% once a day, 14 days); 60% in data set [6] (Panitumumab 10 mg/kg twice a week via tail vein, ointment 10.0 wt% once a day, 14 days). The “Control Rate” value in data set [7] (Afatinib 40 mg/kg once a day, ointment 1.0 wt% once a day, 14 days) stood at 60%; in data set [7] (Afatinib 40 mg/kg once a day, ointment 5.0 wt% once a day, 14 days), 80%; in data set [7] (Afatinib 40 mg/kg once a day, ointment 10.0 wt% once a day, 14 days), 100%; in data set [7] (BPI-7711 60 mg/kg once a day, ointment 1.0 wt% once a day, 12 days), 50%; in data set [7] (Erlotinib 70 mg/kg once a day, ointment 0.3 wt% once a day, 14 days) it was 30%; in data set [7] (Erlotinib 70 mg/kg once a day, ointment 3.0 wt% once a day, 14 days), 50%. Moreover, the “Control Rate” value in data set [7] (Zorifertinib 60 mg/kg once a day, ointment 1.0 wt% once a day, 14 days) is on record as 30%.

With `C[C@@H]1CCN(C(=O)CC#N)C[C@@H]1N(C)c1ncnc2c1ccn2C(=O)N(C)CCOC(=O)CC1CCC1` [Compound A5], the logD in data set [1] worked out at 2.05. The solubility (thermodynamic) at 24 h is 147 µg/mL (≈ 289 µM) in data set [2] (setting [8]) and 1200 µg/mL (≈ 2350 µM) in data set [2] (setting [9]).

With `C[C@@H]1CCN(C(=O)CC#N)C[C@@H]1N(C)c1ncnc2c1ccn2C(=O)N(C)CCOC(=O)C1CCCC1` [Compound A6], in data set [1], the logD was found to be 1.95. Also, the thermodynamic solubility at 24 h in data set [2] (setting [8]) was 300 µg/mL (≈ 589 µM); in data set [2] (setting [9]), 1530 µg/mL (≈ 2990 µM).

As to `CCCCCC(=O)OCCN(C)C(=O)n1ccc2c(N(C)[C@H]3CN(C(=O)CC#N)CC[C@H]3C)ncnc21` [Compound A9], in data set [1], the logD came to 1.69. Also, the thermodynamic solubility at 24 h was determined as 234 µg/mL (≈ 457 µM) in data set [2] (setting [8]) and 1380 µg/mL (≈ 2690 µM) in data set [2] (setting [9]).

As for `C[C@@H]1CCN(C(=O)CC#N)C[C@@H]1N(C)c1ncnc2c1ccn2C(=O)N(C)CCOC(=O)C1(C)CCC1` [Compound A3], the logD in data set [1] was determined as 2.1. In addition, the thermodynamic solubility at 24 h in data set [2] (setting [8]) worked out at 304 µg/mL (≈ 597 µM); in data set [2] (setting [9]), 2340 µg/mL (≈ 4580 µM).
